In patent publication US6773896B2, “Method for direct measurement of coagulation factor VIIa activity in plasma” (Warner-Lambert Company, priority 2001, dated 2004):

How the values were obtained:
FVIIa [1] = target: T1, FVIIa (Homo sapiens, UniProt P08709); assay: Ex vivo FVIIa activity assay in plasma from treated rabbits, two plasma concentrations; conditions: rabbit, 3 mg/kg IV bolus
T1 construct: purchased American Diagnostica, Greenwich, Conn
Description: (§1) The FVIIa activity was measured in the plasma collected from rabbits that received 2-[6-(3-Carbamimidoyl-phenoxy)-3,5-difluoro-4-(1-methyl-3-phenyl-propylamino)-pyridin-2-yloxy]-5-dimethylamino-4-methyl-benzoic acid, IV bolus, 3 mg/kg (n=3). Blood samples were collected before and 1, 5, 10, 30, and 60 minutes after the onset of administration, followed by plasma preparation. 2-[6-(3-Carbamimidoyl-phenoxy)-3,5-difluoro-4-(1-methyl-3-phenyl-propylamino)-pyridin-2-yloxy]-5-dimethylamino-4-methyl-benzoic acid in plasma was extracted using 4 volumes of CH3CN to 1 volume of plasma. Precipitated proteins were removed by centrifugation at 2000 g for 5 minutes. Solvent was decanted into small glass tubes and dried at 37° C. under a stream of nitrogen, then reconstituted in Tris-buffer. The method of FVIIa activity assay is the same as in vitro study. FVIIa activity was determined by measuring the rate of absorbance change at 405 nm due to cleavage of the spectrozyme FVIIa (0.5 mM) by FVIIa/TF complex. Plasma concentrations of 2-[6-(3-Carbamimidoyl-phenoxy)-3,5-difluoro-4-(1-methyl-3-phenyl-propylamino)-pyridin-2-yloxy]-5-dimethylamino-4-methyl-benzo acid were determined by using a standards inhibition curve that were generated from rabbit plasma containing known amount of inhibitor and processed identically to test samples. […]

FVIIa/TF complex = target: T2, FVIIa/TF complex (Homo sapiens, UniProt P08709); assay: In vitro one-stage FVIIa activity assay in human plasma (Spectrozyme FVIIa cleavage); type: biochemical; conditions: for Effect on FVIIa activity in human plasma: 0.625% pooled human plasma, 10 nM FVIIa, 15 nM TF, vs own control
T2 construct: purchased American Diagnostica, Greenwich, Conn
T2 sequence (P13726 33-295 partner, one chain of several): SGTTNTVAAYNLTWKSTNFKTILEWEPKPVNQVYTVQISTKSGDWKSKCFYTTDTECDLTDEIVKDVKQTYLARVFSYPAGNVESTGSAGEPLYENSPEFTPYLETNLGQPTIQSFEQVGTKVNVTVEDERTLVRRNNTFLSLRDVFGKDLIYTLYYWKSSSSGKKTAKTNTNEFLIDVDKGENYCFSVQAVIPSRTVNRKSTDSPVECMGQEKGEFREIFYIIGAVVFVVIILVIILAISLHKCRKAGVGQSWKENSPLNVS
Description: The proteolytic activity of FVIIa was measured by cleavage of paranitroanilide (pNA) substrate (Spectrozyme FVIIa) in a 96-well microtiter plate.
A series of samples containing enzyme inhibitors (0-300 μM) were added to well in a 96-well microtiter plate containing Tris-buffer ([…] Tris, pH 7.4, 100 mM NaCl), 0.625% plasma, 0.1% BSA. After addition of FVIIa (10 nM in final concentration), the plate was incubated for 15 minutes at 37° C. Then the TF (15 nM in final concentration) and CaCl2 (5 mM in final concentration) were added, and the plate was incubated for additional 15 minutes at 37° C. again. After incubation, the substrate (Spectrozyme FVIIa) was added at a final concentration of 0.5 mM to result in a final volume of 200 μL/well. The rate of change in absorbance at 405 nm was monitored by a Softmax plate reader (Molecular Devices).
Above four inhibitors were evaluated in pooled human plasma for their inhibitory effects on FVIIa activity. Effects of FVIIai, 2-[6-(3-Carbamimidoyl-phenoxy)-3,5-difluoro-4-(1-methyl-3-phenyl-propylamino)-pyridin-2-yloxy]-5-dimethylamino-4-methyl-benzoic acid, ({2-(5-Carbamimidoyl-2-hydroxy-phenoxy)-3,5-difluoro-6-[3-(1-methyl-4,5-dihydro-1H-imidazol-2-yl)-phenoxy]-pyridin-4-yl}-methyl-amino)-acetic acid, and (S)-4-[3-(cyclopentylmethylamino)-2-[(2-naphthalenylsulfony)amino]-3-oxopropyl]benzenecarboximidic acid hydrazide on FVIIa activity were compared with their own control group. The activity of FVIIa was obtained with a final concentration of 0.625% human plasma, 10 nM FVIIa, 15 nM TF, 5 mM CaCl2, and 0.5 mM SPZFVIIa.

human FVIIa = target: T3, human FVIIa (Homo sapiens, UniProt P08709); assay: Inhibition of human FVIIa (stated potency); type: biochemical; conditions: read-out: IC50 against human FVIIa
T3 sequence (P08709 213-466 limits assumed): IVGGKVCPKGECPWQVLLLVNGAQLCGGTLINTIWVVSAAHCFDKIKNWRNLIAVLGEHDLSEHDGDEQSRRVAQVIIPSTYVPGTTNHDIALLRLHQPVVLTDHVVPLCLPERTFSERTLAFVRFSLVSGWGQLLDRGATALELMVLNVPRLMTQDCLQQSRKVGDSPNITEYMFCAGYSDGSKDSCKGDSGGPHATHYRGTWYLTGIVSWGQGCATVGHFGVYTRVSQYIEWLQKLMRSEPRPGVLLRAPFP
T3 sequence (P08709 61-212 partner limits assumed): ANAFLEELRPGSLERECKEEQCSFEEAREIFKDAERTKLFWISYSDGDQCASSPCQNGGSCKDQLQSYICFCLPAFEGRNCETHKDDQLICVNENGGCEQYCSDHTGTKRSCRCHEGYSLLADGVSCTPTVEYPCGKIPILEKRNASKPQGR

[2] = Ex vivo study in rabbit plasma: plasma concentration calculated from FVIIa activity; conditions: 3 mg/kg IV bolus, 1-60 min, n=3, calculated from FVIIa activity and IC50 standard curve
Description: as §1

[3] = Plasma level in hypercholesterolemic rabbits calculated from FVIIa activity; type: in vivo, rabbit; conditions: IV bolus 0.3 and 1.0 mg/kg, 3 minutes after administration
Description: (§2) The FVIIa activity was measured in plasma collected from hypercholesterolemic rabbits in a balloon-induced injury model of thrombosis. The rabbits received two doses of 7-[(R)-3-(3-Amino-benzyl)-4-(4-amino-phenyl)-4-methyl-2,5-dioxo-imidazolidin-1-ylmethyl]-naphthalene-2-carboxamidine, IV bolus, 0.3 mg/kg (n=5) and 1.0 mg/kg (n=6). Blood samples were collected before and 3 minutes after administration, followed by plasma preparation. Plasma samples were extracted using CH3CN and reconstituted in Tris-buffer. The protocol is the same as ex vivo study of 2-[6-(3-Carbamimidoyl-phenoxy)-3,5-difluoro-4-(1-methyl-3-phenyl-propylamino)-pyridin-2-yloxy]-5-dimethylamino-4-methyl-benzoic acid. The plasma levels of 7-[(R)-3-(3-Amino-benzyl)-4-(4-amino-phenyl)-4-methyl-2,5-dioxo-imidazolidin-1-ylmethyl]-naphthalene-2-carboxamidine were calculated based on the test plasma FVIIa activity and an IC50 standard curve. […]
(§3) The inhibitory effect and plasma concentration of 7-[(R)-3-(3-Amino-benzyl)-4-(4-amino-phenyl)-4-methyl-2,5-dioxo-imidazolidin-1-ylmethyl]-naphthalene-2-carboxamidine was determined in balloon-induced injury model of thrombosis in hypercholesterolemic rabbits. […] The inhibitory effect of 7-[(R)-3-(3-Amino-benzyl)-4-(4-amino-phenyl)-4-methyl-2,5-dioxo-imidazolidin-1-ylmethyl]-naphthalene-2-carboxamidine was measured by FVIIa activity assay. […]

FVIIa [4] = target: T1, FVIIa; assay: Ex vivo FVIIa activity assay in plasma of hypercholesterolemic rabbits (balloon-induced injury model of thrombosis); parameters: species or system rabbit; conditions: IV bolus 0.3 and 1.0 mg/kg, 3 minutes after administration
Description: as §2, §3

thrombin = thrombin (Homo sapiens, UniProt P00734); assay: Inhibition of thrombin (stated potency); type: biochemical

T1 sequence (P13726 33-295 partner, one chain of several): as the sequence (P13726 33-295 partner, one chain of several) above

With `Cc1cc(Oc2nc(Oc3cccc(C(=N)N)c3)c(F)c(NC(C)CCc3ccccc3)c2F)c(C(=O)O)cc1N(C)C` (centres unmarked) [2-[6-(3-Carbamimidoyl-phenoxy)-3,5-difluoro-4-(1-methyl-3-phenyl-propylamino)-pyridin-2-yloxy]-5-dimethylamino-4-methyl-benzoic acid] the “Ex vivo inhibitory effect on FVIIa activity with 1.25% vs 0.625% plasma in the assay” value (FVIIa [1]) was “same inhibitory effect”, the “Effect on FVIIa activity in human plasma” value (FVIIa/TF complex; 300 nM) was “significantly decreased FVIIa activity” and the “Inhibition on FVIIa activity in human plasma over a series of concentrations” value (FVIIa/TF complex; human plasma, series of concentrations) was “dose-dependent inhibition”. For the same compound, the IC50 (human FVIIa) was 15 nM and the “Plasma concentration after IV bolus administration” value [2] was “time-dependent change in plasma concentration”.

For `C[C@@]1(c2ccc(N)cc2)C(=O)N(Cc2ccc3ccc(C(=N)N)cc3c2)C(=O)N1Cc1cccc(N)c1` [7-[(R)-3-(3-Amino-benzyl)-4-(4-amino-phenyl)-4-methyl-2,5-dioxo-imidazolidin-1-ylmethyl]-naphthalene-2 carboxamidine], the Plasma level [3] was “dose-dependent changes” and the “Ex vivo inhibitory effect on FVIIa activity” value (FVIIa [4]) was “dose-dependent changes in inhibitory effect”.

With `N=C(NN)c1ccc(C[C@H](NS(=O)(=O)c2ccc3ccccc3c2)C(=O)NCC2CCCC2)cc1` [(S)-4-[3-(cyclopentylmethylamino)-2-[(2-naphthalenylsulfonyl)amino]-3-oxoprpoyl]-benzenecarboximidic acid hydrazide] the “Effect on FVIIa activity in human plasma” value (FVIIa/TF complex; 100 nM) was “did not alter FVIIa activity”, the IC50 (thrombin; read-out: IC50 against thrombin) was 2 nM and the Ki (thrombin; read-out: Ki against thrombin) was 0.38 nM.

For `CN1CCN=C1c1cccc(Oc2nc(Oc3cc(C(=N)N)ccc3O)c(F)c(N(C)CC(=O)O)c2F)c1` [({2-(5-Carbamimidoyl-2-hydroxy-phenoxy)-3,5-difluoro-6-[3-(1-methyl-4,5-dihydro-1H-imidazol-2-yl)-phenoxy]-pyridin-4-yl}-methyl-amino)-acetic acid], the “Effect on FVIIa activity in human plasma” value (FVIIa/TF complex; 100 nM) was “did not alter FVIIa activity”.
